This note sets out measurements from patent US20260125346A1, “Isoquinolinone Derivatives and 4H-Quinolizinone Derivatives and Pharmaceutical Compositions Thereof for the Treatment of Disease” (BeOne Medicines I GmbH, priority 2023, published 2026).

pIC50: −log10 of the molar value.

One may read the pIC50 as the negative decadic logarithm of the IC50, by convention in mol/L.

For experiment [1], the system named is PI3Kα H1047R mutated cell line T-47D. In words: Phospho-AKT (Ser473) Inhibition Assay (HTRF), T-47D. It is filed as cell-based. The note with it: for pIC50: Homo sapiens, T47D, T-47D, 1 hour treatment, read-out: p-AKT Inhibition assay (S473) IC50 T-47D; for Selectivity: SK-BR-3/T-47D (p-AKT): p-AKT (S473) IC50 ratio. The essentials: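 Cells seeded overnight in insulin-supplemented MEM, then treated 1 h with 11-point 1:3 compound dilutions (10 μM to 0.1 nM final, 0.1% DMSO). Lysates assayed for phospho-AKT Ser473 by HTRF; IC50 from 4-parameter logistic fit, normalised to DMSO (max) and 10 μM GDC0077 (min).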
For orientation: TR-FRET usually uses a lanthanide donor and a delayed reading to cut background.

The target of experiment [2] is PI3Kα (p110/p85) kinase (wild type, "WT") (Homo sapiens, UniProt P42336). Kind of experiment: PI3Kα (p110/p85) kinase ADP-Glo Assay. It is filed as biochemical. The note with it: 25 uM ATP. An outline of the steps: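 Wild-type PI3Kα p110/p85 preincubated 30 min at RT with PI(4,5)P2:PS substrate ([…]) and compound ([…]) in HEPES pH7.5 buffer with MgCl2, DTT and BSA; reaction started with 25 µM ATP for 120 min at RT. ADP measured by ADP-Glo luminescence; IC50 from four-parameter logistic fit.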
PI3Kα (p110/p85) kinase (wild type, "WT"), sequence (P42336 whole entry): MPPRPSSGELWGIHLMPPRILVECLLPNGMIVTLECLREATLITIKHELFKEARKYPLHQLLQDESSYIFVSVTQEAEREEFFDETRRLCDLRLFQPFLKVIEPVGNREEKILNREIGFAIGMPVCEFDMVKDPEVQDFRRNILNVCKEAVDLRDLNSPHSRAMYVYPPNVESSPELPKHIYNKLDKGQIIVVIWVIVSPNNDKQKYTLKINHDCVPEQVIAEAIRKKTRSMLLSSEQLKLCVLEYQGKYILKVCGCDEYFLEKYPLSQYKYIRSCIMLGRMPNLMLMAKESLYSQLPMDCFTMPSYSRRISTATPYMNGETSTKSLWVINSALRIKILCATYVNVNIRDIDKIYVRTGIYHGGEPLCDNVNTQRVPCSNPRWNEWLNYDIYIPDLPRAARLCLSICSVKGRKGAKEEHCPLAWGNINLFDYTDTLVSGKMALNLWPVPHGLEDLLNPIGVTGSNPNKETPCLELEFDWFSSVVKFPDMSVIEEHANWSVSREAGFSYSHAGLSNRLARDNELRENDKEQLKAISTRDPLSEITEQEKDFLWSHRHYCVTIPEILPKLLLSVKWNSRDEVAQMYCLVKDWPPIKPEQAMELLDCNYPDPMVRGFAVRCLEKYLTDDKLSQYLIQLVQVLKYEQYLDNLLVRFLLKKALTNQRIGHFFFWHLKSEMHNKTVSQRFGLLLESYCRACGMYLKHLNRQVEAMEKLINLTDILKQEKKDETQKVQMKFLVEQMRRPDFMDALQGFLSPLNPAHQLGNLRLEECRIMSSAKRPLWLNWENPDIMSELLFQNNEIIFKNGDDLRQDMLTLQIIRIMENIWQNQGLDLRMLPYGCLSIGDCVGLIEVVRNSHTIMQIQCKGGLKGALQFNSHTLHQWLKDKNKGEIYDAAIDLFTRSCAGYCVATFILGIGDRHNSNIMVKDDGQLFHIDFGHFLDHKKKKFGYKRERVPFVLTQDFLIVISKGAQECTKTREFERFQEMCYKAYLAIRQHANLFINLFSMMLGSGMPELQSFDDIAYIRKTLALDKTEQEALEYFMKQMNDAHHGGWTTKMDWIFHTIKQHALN
PI3Kα (p110/p85) kinase (wild type, "WT"), sequence (P27986 whole entry partner): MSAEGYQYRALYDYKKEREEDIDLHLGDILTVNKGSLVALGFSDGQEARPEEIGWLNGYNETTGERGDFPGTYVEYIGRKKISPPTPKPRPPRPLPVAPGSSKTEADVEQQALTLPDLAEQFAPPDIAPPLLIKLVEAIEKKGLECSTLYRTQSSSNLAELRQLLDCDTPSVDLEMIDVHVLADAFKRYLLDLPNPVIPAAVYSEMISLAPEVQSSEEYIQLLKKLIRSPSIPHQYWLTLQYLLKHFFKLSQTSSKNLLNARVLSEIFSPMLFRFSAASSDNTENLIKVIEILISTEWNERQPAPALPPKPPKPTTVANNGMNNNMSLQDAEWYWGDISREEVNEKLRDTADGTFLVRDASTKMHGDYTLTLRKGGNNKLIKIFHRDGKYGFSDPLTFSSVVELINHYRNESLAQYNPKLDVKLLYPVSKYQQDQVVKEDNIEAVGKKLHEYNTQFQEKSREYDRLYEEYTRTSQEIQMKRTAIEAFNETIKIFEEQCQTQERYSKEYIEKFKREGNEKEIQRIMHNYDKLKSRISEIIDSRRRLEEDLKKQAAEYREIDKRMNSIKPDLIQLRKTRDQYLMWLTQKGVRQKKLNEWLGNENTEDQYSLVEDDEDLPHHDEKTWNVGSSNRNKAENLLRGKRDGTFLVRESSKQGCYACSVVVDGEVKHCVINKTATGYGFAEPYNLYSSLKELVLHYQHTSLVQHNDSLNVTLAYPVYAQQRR
On the technique in general: In ADP-Glo the light output rises with the ADP produced.

A further experiment deals with WT cell line SK-BR-3. Kind of experiment: Phospho-AKT (Ser473) Inhibition Assay (HTRF), SK-BR-3. It is filed as cell-based. The note with it: Homo sapiens; SK-BR-3, 1 hour treatment; read-out: p-AKT Inhibition assay (S473) IC50 SK-BR-3. The essentials:
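SK-BR-3 (PI3Kα WT) cells seeded overnight in MEM with insulin, then treated 1 h with 11-point 1:3 dilutions (10 μM to 0.1 nM, 0.1% DMSO). Lysates read for phospho-AKT Ser473 by HTRF after 4 h antibody incubation at room temperature. IC50 from 4-parameter fit, % inhibition normalized to DMSO (max) and 10 μM GDC0077 (min).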

Experiment [3] relates to PI3Kα H1047R mutated cell line T-47D cells. Kind of experiment: Cell Proliferation Assay (CellTiter-Glo), T-47D. The format is cell-based. The note with it: for pIC50: Homo sapiens, T47D, 72 h, T-47D, 3 days treatment; for Selectivity: SK-BR-3/T-47D (cell proliferation): cell proliferation IC50 ratio. An outline of the steps: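 T-47D cells seeded overnight at 3×10^3/well, then exposed 3 days to 9-point 1:3 dilutions, final […] to 1 nM in 0.1% DMSO. CellTiter-Glo luminescence; relative IC50 from percent inhibition versus medium-only and 0.1% DMSO controls, 4-parameter logistic fit.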
(In general: Cellular ATP, detected with luciferase, serves as a proxy for viable cell number.)

On to `CCn1c(-c2ccc(F)cc2)cc2c(C(C)Nc3ccc(Cl)nc3C(=O)O)cc(C)cc2c1=O` (centres unmarked) [Example 81, 6-chloro-3-((1-(2-ethyl-3-(4-fluorophenyl)-7-methyl-1-oxo-1,2-dihydroisoquinolin-5-yl)ethyl)amino)picolinic acid], for which the pIC50 was 7.39 in experiment [1], 5.42 in experiment [2], 5.73 in the experiment with WT cell line SK-BR-3 and 6.11 in experiment [3]. Also, the “Selectivity: SK-BR-3/T-47D (p-AKT)” value in experiment [1] is 45.6. Further, in experiment [3], the “Selectivity: SK-BR-3/T-47D (cell proliferation)” value is above 13.
Regarding `Cc1cc(C(C)Nc2ccccc2S(C)(=O)=O)c2cc(-c3ccccc3)n(C)c(=O)c2c1` (centres unmarked) [Example 82, 2,7-dimethyl-5-(1-((2-(methylsulfonyl)phenyl)amino)ethyl)-3-phenylisoquinolin-1(2H)-one], the negative logarithm of the IC50 (pIC50) is 6.81 in experiment [1], 5.48 in experiment [2], 5.69 with WT cell line SK-BR-3 and below 5.00 in experiment [3]. In addition, in experiment [1], the “Selectivity: SK-BR-3/T-47D (p-AKT)” value was 13.0.
On to `Cc1cc(C(C)Nc2ccccc2C(=O)O)c2cc(-c3ccc(N4CCCC4)cc3)n(C)c(=O)c2c1` (centres unmarked) [Example 84, 2-((1-(2,7-dimethyl-1-oxo-3-(4-(pyrrolidin-1-yl)phenyl)-1,2-dihydroisoquinolin-5-yl)ethyl)amino)benzoic acid], for which the negative logarithm of the IC50 (pIC50) is 7.22 in experiment [1], 4.83 in experiment [2], 5.51 in the experiment on WT cell line SK-BR-3 and 6.33 in experiment [3]. Besides, the “Selectivity: SK-BR-3/T-47D (p-AKT)” value in experiment [1] was 52.0. Further, the “Selectivity: SK-BR-3/T-47D (cell proliferation)” value in experiment [3] is above 22.
Regarding `Cc1cc(C(C)Nc2ccccc2C(=O)O)c2cc(-c3ccc(C(F)(F)F)nc3)n(C)c(=O)c2c1` (centres unmarked) [Example 86, 2-((1-(2,7-dimethyl-1-oxo-3-(6-(trifluoromethyl)pyridin-3-yl)-1,2-dihydroisoquinolin-5-yl)ethyl)amino)benzoic acid], the pIC50 in experiment [1] was 6.43; in experiment [2], 4.82; in the experiment on WT cell line SK-BR-3 it was below 5.00; in experiment [3], 6.43. The “Selectivity: SK-BR-3/T-47D (p-AKT)” value in experiment [1] is listed as above 27. Further, the “Selectivity: SK-BR-3/T-47D (cell proliferation)” value in experiment [3] was above 26.6.
As to `Cc1cc(C(C)Nc2ccccc2C(=O)O)c2cc(-c3cnn(CC45CC6C[C@H](C4)C[C@H](C6)C5)c3C)n(C)c(=O)c2c1` (stereo partly drawn) [Example 87, 2-((1-(3-(1-(((3S,5S)-adamantan-1-yl)methyl)-5-methyl-1H-pyrazol-4-yl)-2,7-dimethyl-1-oxo-1,2-dihydroisoquinolin-5-yl)ethyl)amino)benzoic acid], the pIC50 is 6.36 in experiment [1], 4.45 in experiment [2], 5.55 in the experiment on WT cell line SK-BR-3 and 6.05 in experiment [3]. In addition, the “Selectivity: SK-BR-3/T-47D (p-AKT)” value in experiment [1] was 6.6. Also, in experiment [3], the “Selectivity: SK-BR-3/T-47D (cell proliferation)” value is on record as above 11.2.
Take `Cc1cc(C(C)Nc2ccccc2C(=O)O)c2cc(C#Cc3ccn(C)n3)n(C)c(=O)c2c1` (centres unmarked) [Example 88, 2-((1-(2,7-dimethyl-3-((1-methyl-1H-pyrazol-3-yl)ethynyl)-1-oxo-1,2-dihydroisoquinolin-5-yl)ethyl)amino)benzoic acid]: the pIC50 in experiment [1] is 7.16; in experiment [2], 5.76; in the experiment on WT cell line SK-BR-3 it was 5.71; in experiment [3], 6.16. Further, the “Selectivity: SK-BR-3/T-47D (p-AKT)” value in experiment [1] is listed as 28.3. In addition, the “Selectivity: SK-BR-3/T-47D (cell proliferation)” value in experiment [3] is above 14.
As to `Cc1cc(C(C)Nc2ccccc2C(=O)O)c2cc(C#CC3(O)CCCC3)n(C)c(=O)c2c1` (centres unmarked) [Example 89, 2-((1-(3-((1-hydroxycyclopentyl)ethynyl)-2,7-dimethyl-1-oxo-1,2-dihydroisoquinolin-5-yl)ethyl)amino)benzoic acid], the negative logarithm of the IC50 (pIC50) was 6.74 in experiment [1], 5.16 in experiment [2], 5.17 in the experiment with WT cell line SK-BR-3 and 6.03 in experiment [3]. Further, the “Selectivity: SK-BR-3/T-47D (p-AKT)” value in experiment [1] came to 37.2. In experiment [3], the “Selectivity: SK-BR-3/T-47D (cell proliferation)” value is above 11.
